Test results taken from US10780139B1, “Hypericum revolutum extract as a vasodilator” (King Abdulaziz University, priority 2020, dated 2020).

Columns and labels:
[1] = system: PE pre-contracted isolated aorta; assay: vasodilating activity, isolated artery technique (PE-precontracted isolated aorta); set-up: species or system Wistar rats; settings: for vasodilation of PE precontracted isolated aortae: isolated compounds 1-10 μM cumulative, vs time control, p<0.05, FIG. 7-8
Method: Male Wistar rats 6-8 weeks old (180-200 g) (King Fahd Medical Research Center, King Abdulaziz University, Jeddah, Saudi Arabia) were used in this study. Clear polypropylene cages containing 4 rats each were used to house the animals and provided access to purified water and standard rodent pellets. The animal housing conditions applied were constant involving alternating 12 hours light and dark, a temperature of 22±3° C., a relative humidity of 50-60%, and adequate ventilation. Experimental protocol was approved by the Research Ethical Committee, Faculty of Pharmacy, King Abdulaziz University, Jeddah, Saudi Arabia (approval number 126-1439) and was conducted in accordance with the Saudi Arabia Research Bioethics and Regulations.
All animals used for the purpose of this study received a standard pellet diet and drinking water. Animals were killed by decapitation with rodent guillotine and the descending thoracic aorta was carefully excised and cleaned from fat and connective tissue.
(§1) The vasodilating activities of the methanol extract, fractions, and isolated compounds were studied using the isolated artery technique as previously described (El-Bassossy et al., 2013; El-Bassossy et al., 2016). Briefly, aorta was excised, cleaned of any fats and connective tissue, and cut into 3 mm rings. Each ring was suspended in channels filled with 25 ml of Krebs Henseleit buffer (118 mM NaCl, 4.8 mM KCl, 2.5 mM CaCl2), 1.2 mM MgSO4, 1.2 mM KH2PO4, 25 mM NaHCO3, and 11.1 mM glucose) maintained at 37° C. and continuously aerated with gas consisting of 95% oxygen and 5% carbon dioxide. The buffer solution in the channels was changed every 30 minutes.
(§2) The aortic rings were left to equilibrate for 20 minutes at a resting tension of 1500 mg±50. Primary contraction and relaxation of the aorta were then performed by adding PE (10^−5 M) followed by ACh […]. After the tension was returned to resting state, cumulative concentrations of the total extract, fractions (1-10 μg/ml) or the pure isolated compounds (1-10 μM) were added to the organ bath containing the isolated aortae precontracted with PE (10 μM). The decrease in tension was measured as a measure of vasodilation activities.
(§3) In all experiments, similar PE-precontraction tension was achieved before testing the vasodilating responses.

[2] = system: vascular NO production (isolated aorta); assay: NO production from isolated aorta, fluorescence probe DAF-FM; set-up: species or system Wistar rats; settings: 10 μM; DAF-FM 2.5 μM; 37° C.; FIG. 9
Method: Induction of intracellular NO production from the isolated aorta by the total extract, fraction I or the pure isolated compounds was investigated using the fluorescence probe DAF-FM as described in previous work with some modifications (Ghareib et al., 2015). Similar to previous technique, the thoracic aorta was excised, cleaned of fats, and cut into approximately 6 mm pieces. Each piece was added to a separate well in a 96-well black plate, kept in dim light, containing KHB/DAF-FM (2.5 μM) mixture (37° C.) and prepared directly before commencement of the procedure. After 3 minutes, 100 μl were carefully drawn and transferred to the adjacent column of wells after which 10 μM ACh was added to one of the aortic segments and 10 μg/ml of the total extract or fraction I or 10 μM of the pure isolated compounds was added to the other wells. Again after 3 minutes, 100 μl were drawn from the wells with the aortae and transferred to the next column of wells. For the blank, a row was kept without an aorta for each concentration of ACh was treated in the same manner. The fluorescence intensity for the withdrawn volumes (and not the column containing the aortae) was then measured at λex=485 nm and […] with the use of Monochromator SPECTRAMAX® M3 plate reader (Molecular Devices, Sunnyvale, Calif., USA).

[3] = system: PE pre-contracted endothelium-denuded aorta; assay: vasodilating activity in endothelium-denuded PE-precontracted isolated aorta; set-up: species or system Wistar rats; settings: isolated compounds, 10 μM, p<0.05; FIG. 7-8
Method: as §1, §2
In another set of experiments, endothelium was mechanically denuded in order to investigate its role in the vasodilation effect.
as §3

[4] = ROS scavenging ability, DPPH; settings: DPPH 240 μM; 1, 3 and 10 μM; 10-minute reaction; FIG. 10
Method: The reactive oxygen species (ROS) scavenging ability of fraction I or pure isolated compounds was studied as previously reported with some modifications (Tarkhan et al., 2019). In a 96-well clear plate, the fraction I (1-10 μg/ml) or pure isolated compounds (1-10 μM) in methanol was added to DPPH solution (240 μM) in methanol/tris (1:1 v/v). For the time control (C), methanol was used instead of the fraction or compounds. DPPH was prepared immediately before addition to the plate. The absorbance was measured at 520 nm every minute for 10 minutes with the use of Monochromator SPECTRAMAX® M3 plate reader (Molecular Devices, Sunnyvale, Calif., USA).

Row | Compound | vasodilation of PE precontracted isolated aortae [1] | vascular NO production (DAF-FM fluorescence) compared with control [2] | vasodilation of PE-precontracted isolated aortae ([1]; maximal extent reached, 1-10 μM, FIG. 7B) [%] | effect of endothelial denudation on vasodilation activity [3] | DPPH free radical scavenging activity [4]
1 | CCC(C)C(=O)c1c(O)c(C)c(OCC=C(C)C)c(C(=O)CC(C)C)c1O (stereo not shown) [compound 1, 3,5-dihydroxy-6-methyl-1-[(3-methylbut-2-en-1-yl)oxy]-2-(3-methylbutyryl)-4-(2-methylbutyryl)-benzene] | concentration dependent vasodilation |  |  |  | 
2 | CC(C)=CCC(=O)C1CC23CC(Cl)C(C)(C)OC2(C(O)C=C(C)C)C(=O)C(C(=O)C(C)C)(C3=O)C1(C)C (stereo not shown) [compound 2, 3-chloro-9a-(1-hydroxy-3-methylbut-2-en-1-yl)-8-isobutyryl-2,2,7,7-tetramethyl-6-(4-methylpent-3-enoyl)hexahydro-2H-4a,8-methanocyclohepta[b]pyran-9,10(9aH)-dione] | reached statistical significance at concentrations of 3 and 10 μM | induced NO production that reached statistical significance | 50 | completely blocked the vasodilation activity | 
3 | CC[C@H](CC[C@@H](C)[C@H]1CC[C@H]2[C@@H]3CC=C4C[C@@H](O)CC[C@]4(C)[C@H]3CC[C@]12C)C(C)C [compound 3, β-sitosterol] | concentration dependent vasodilation | induced NO production that reached statistical significance |  | completely blocked the vasodilation activity | 
4 | COc1cc2c(=O)c3ccccc3oc2c(OC)c1OC [compound 5, 2,3,4-trimethoxy xanthone] | concentration dependent vasodilation |  |  | blocked the vasodilation activity | significant free radical scavenging activity
5 | euxanthone [compound 4] | did not show any significant vasodilation |  |  | did not have any significant effect | 
